Measured values from ChEMBL document CHEMBL3525971 (Drug Metab Dispos, 2011).

Experiments:
[1] = Tmax in castrated pig plasma withdrawn from femoral vein at 10 mg/kg dosed via intrajejunal route by HPLC-UV; settings: male
[2] = Cmax in castrated pig plasma withdrawn from portal vein at 10 mg/kg dosed via intrajejunal route by HPLC-UV; settings: male
[3] = AUC (0 to 6 hrs) in castrated pig plasma withdrawn from femoral vein dosed via intrajejunal route by UPLC-tandem mass spectrometry; settings: male
[4] = Cmax in castrated pig plasma withdrawn from femoral vein at 10 mg/kg dosed via intrajejunal route by HPLC-UV; settings: male
[5] = Tmax in castrated pig plasma withdrawn from portal vein at 10 mg/kg dosed via intrajejunal route by HPLC-UV; settings: male
[6] = Half life in castrated pig plasma withdrawn from femoral vein at 10 mg/kg dosed via intrajejunal route by HPLC-UV; settings: male
[7] = AUC (0 to 6 hrs) in castrated pig plasma withdrawn from portal vein dosed via intrajejunal route by UPLC-tandem mass spectrometry; settings: male
[8] = Half life in castrated pig plasma withdrawn from portal vein at 10 mg/kg dosed via intrajejunal route by HPLC-UV; settings: male
[9] = Apparent biliary clearance in castrated pig treated with finasteride at 0.8 mg/kg administered as intrajejunal dose by UPLC-tandem mass spectrometry; type: ADME, organism-based, Sus scrofa, Bile; parameters: dose 0.8 mg/kg; settings: in vivo
[10] = Apparent biliary clearance in castrated pig treated with finasteride at 0.8 mg/kg administered as intrajejunal dose 20 mins after ketoconazole administration by UPLC-tandem mass spectrometry; type: ADME, organism-based, Sus scrofa, Bile; parameters: dose 0.8 mg/kg; settings: in vivo
[11] = Apparent biliary clearance in castrated pig treated with finasteride at 0.2 mg/kg, iv by UPLC-tandem mass spectrometry; type: ADME, organism-based, Sus scrofa, Bile; parameters: dose 0.2 mg/kg, route intravenous; settings: in vivo
[12] = Biliary excretion in castrated pig assessed as unchanged drug level treated with finasteride at 0.2 mg/kg, iv measured during 6 hrs sampling by UPLC-tandem mass spectrometry; type: ADME, organism-based, Sus scrofa, Bile; parameters: dose 0.2 mg/kg, route intravenous; settings: in vivo
[13] = Biliary excretion in castrated pig assessed as unchanged drug level treated with finasteride at 0.8 mg/kg administered as intrajejunal dose measured during 6 hrs sampling by UPLC-tandem mass spectrometry; type: ADME, organism-based, Sus scrofa, Bile; parameters: dose 0.8 mg/kg; settings: in vivo, other
[14] = Drug excretion in castrated pig urine assessed as unchanged drug level treated with finasteride at 0.8 mg/kg administered as intrajejunal dose measured during 6 hrs sampling by UPLC-tandem mass spectrometry; type: ADME, organism-based, Sus scrofa; parameters: dose 0.8 mg/kg; settings: in vivo, other
[15] = Drug excretion in castrated pig urine assessed as unchanged drug level treated with finasteride at 0.8 mg/kg administered as intrajejunal dose 20 mins after ketoconazole administration measured during 6 hrs sampling by UPLC-tandem mass spectrometry; type: ADME, organism-based, Sus scrofa; parameters: dose 0.8 mg/kg; settings: in vivo, other
[16] = Biliary excretion in castrated pig assessed as unchanged drug level treated with finasteride at 0.8 mg/kg administered as intrajejunal dose 20 mins after ketoconazole administration measured during 6 hrs sampling by UPLC-tandem mass spectrometry; type: ADME, organism-based, Sus scrofa, Bile; parameters: dose 0.8 mg/kg; settings: in vivo, other
[17] = Drug excretion in castrated pig urine assessed as unchanged drug level treated with finasteride at 0.2 mg/kg, iv measured during 6 hrs sampling by UPLC-tandem mass spectrometry; type: ADME, organism-based, Sus scrofa; parameters: dose 0.2 mg/kg, route intravenous; settings: in vivo

SMILES | Tmax [1] [h] | Cmax [2] [µM] | AUC(0-t) at 6 h [3] [µM·h] | Cmax [4] [µM] | Tmax [5] [h] | half-life [6] [h] | AUC(0-t) at 6 h [7] [µM·h] | half-life [8] [h] | CL(app) [9] [mL/min/kg] | CL(app) [10] [mL/min/kg] | CL(app) [11] [mL/min/kg] | Ae [12] [µmol] | Ae [13] [µmol] | Ae [14] [µmol] | Ae [15] [µmol] | Ae [16] [µmol] | Ae [17] [µmol]
CC(=O)N1CCN(c2ccc(OCC3COC(Cn4ccnc4)(c4ccc(Cl)cc4Cl)O3)cc2)CC1 (configuration not stated) [KETOCONAZOLE] | 1.8 | 9 | 13 | 3 | 0.7 | 4.1 | 22 | 3.1 |  |  |  |  |  |  |  |  | 
CC(C)(NC(=O)[C@H]1CC[C@H]2[C@@H]3CC[C@H]4NC(=O)C=C[C@]4(C)[C@H]3CC[C@]12C)C(=O)O |  |  |  |  |  |  |  |  | 2.4 | 1.2 | 3.6 | 0.6 | 1.2 | 8.5 | 3.4 | 0.7 | 1.2
